This is an account of results in ChEMBL document CHEMBL4602635, “Microtubule inhibitors containing immunostimulatory agents promote cancer immunochemotherapy by inhibiting tubulin polymerization and tryptophan-2,3-dioxygenase” (Eur J Med Chem, 2020).

The test system of series [1] is HepG2. Briefly: Cell cycle arrest in human HepG2 cells assessed as accumulation at G2 phase at 0.1 uM measured after 24 hrs by RNase A/propidium iodide staining based flow cytometry (reference value: 16.23 %). The format is functional. On the technique in general: A flow cytometer gives signals particle by particle.
Series [2] concerns HepG2. The series can be described thus: Induction ROS generation in human HepG2 cells assessed as increase in intracellular ROS level at 0.1 uM measured after 24 hrs by DCFH-DA probe based flow cytometry relative to combretastatin-A4. The format is functional.
The subject of series [3] is HepG2. Briefly: Induction of mitochondrial membrane potential disruption in human HepG2 cells assessed as increase in green-emitting fluorescence at 0.1 uM measured after 24 hrs by JC1 staining based fluorescence microscopy. In kind it is functional, cell-based.
In series [4] the test system is HepG2. The series can be described thus: Induction ROS generation in human HepG2 cells assessed as intracellular ROS level at 0.1 uM measured after 24 hrs by DCFH-DA probe based flow cytometry (reference value: 7.86 %). The format is functional.
The subject of series [5] is HepG2. The series can be described thus: Induction of mitochondrial membrane potential disruption in human HepG2 cells assessed as reduction in red fluorescence at 0.1 uM measured after 24 hrs by JC1 staining based fluorescence microscopy. The format is functional, cell-based.
A short description of series [6]: Toxicity in […] BALB/c nude mouse xenografted with human A549 cells assessed as effect on lung damage or inflammation at 30 mg/kg, iv administered once daily for 29 consecutive days measured after 29 days by hematoxylin-eosin staining based fluorescence microscopy. In kind it is organism-based. As to conditions: in vivo, 696 h. On the technique in general: Xenograft models place foreign cells or tissue in a host animal.

Series [7] relates to HepG2. Briefly: Induction of apoptotic cell death in human HepG2 cells assessed as decrease in viable cells by measuring reduction in green fluorescence at 0.1 uM measured after 24 hrs by acridine orange/ethidium bromide staining based fluorescence microscopy. The format is functional.
Series [8] in a line: Toxicity in ICR mouse xenografted with mouse H22 cells assessed as effect on liver damage or inflammation at 30 mg/kg, iv administered once daily for 21 consecutive days measured after 21 days by hematoxylin-eosin staining based fluorescence microscopy. In kind it is organism-based. As to conditions: in vivo, 504 h.
Another series deals with Mus musculus. The series can be described thus: Antitumor immunity against mouse H22 cells expressing TDO xenografted in ICR mouse assessed as proliferation of CD8+ cells in spleen at 30 mg/kg, iv administered once daily for 21 consecutive days and measured after 21 days by flow cytometry (reference value: 17.2 %). In kind it is functional.
The test system of series [9] is HepG2. Briefly: Induction of apoptosis in human HepG2 cells assessed as live cells at 0.1 uM measured after 24 hrs by Annexin-V-FITC/propidium iodide staining based flow cytometry (reference value: 95 %). In kind it is functional.
The next series concerns the target Tubulin (Homo sapiens) (UniProt P68371+Q9H4B7+P0DPH7+P68366+Q13509+Q71U36+P04350+Q3ZCM7+P07437+P68363+Q9BQE3+Q6PEY2+Q13885+Q9BVA1+Q9BUF5). The series can be described thus: Inhibition of tubulin polymerization in human HepG2 cells assessed as disruption of interphase microtubule by measuring irregular arrangement of microtubules at 0.05 to 0.1 uM measured after 24 hrs by DAPI staining based laser scanning confocal microscopy analysis. The format is cell-based.

Series [10] deals with HepG2. Briefly: Inhibition of kynurenine production in human HepG2 cells at 0.05 uM measured after 24 hrs by HPLC analysis. The format is functional, cell-based.
A short description of series [11]: Toxicity in […] BALB/c nude mouse xenografted with human A549 cells assessed as effect on body weight at 30 mg/kg, iv administered once daily for 29 consecutive days measured every 2 days for 29 days. In kind it is organism-based. As to conditions: in vivo, 696 h.
In series [12] the test system is HepG2. Briefly: Induction of apoptosis in human HepG2 cells assessed as induction of PARP cleavage at 0.1 uM after 24 hrs by Western blot analysis. In kind it is functional, cell-based. (Immunoblotting shows a protein as a band on a membrane.)
Series [13] can be described thus: Toxicity in ICR mouse xenografted with mouse H22 cells assessed as effect on spleen damage or inflammation at 30 mg/kg, iv administered once daily for 21 consecutive days measured after 21 days by hematoxylin-eosin staining based fluorescence microscopy. The format is organism-based. The note with it: in vivo, 504 h.
Series [14] relates to HepG2. Briefly: Induction of apoptosis in human HepG2 cells assessed as upregulation of BAX protein expression at 0.1 uM after 24 hrs by Western blot analysis. In kind it is functional, cell-based.
Series [15] can be described thus: Toxicity in […] BALB/c nude mouse xenografted with human A549 cells assessed as effect on spleen damage or inflammation at 30 mg/kg, iv administered once daily for 29 consecutive days measured after 29 days by hematoxylin-eosin staining based fluorescence microscopy. The format is organism-based. The note with it: in vivo, 696 h.
Series [16] concerns HepG2. The series can be described thus: Cell cycle arrest in human HepG2 cells assessed as accumulation at G1 phase at 0.1 uM measured after 24 hrs by RNase A/propidium iodide staining based flow cytometry (reference value: 60.73 %). In kind it is functional.
The subject of series [17] is HepG2. The series can be described thus: Antimigratory activity against human HepG2 cells assessed as inhibition of cell migration at 0.1 uM measured after 12 hrs by scratch wound healing assay. The format is functional, cell-based.
Series [18] concerns HepG2. Briefly: Induction of apoptosis in human HepG2 cells assessed as necrotic cells at 0.1 uM measured after 24 hrs by Annexin-V-FITC/propidium iodide staining based flow cytometry (reference value: 1.02 %). The format is functional.
Series [19] deals with HepG2. The series can be described thus: Cell cycle arrest in human HepG2 cells assessed as accumulation at S phase at 0.1 uM measured after 24 hrs by RNase A/propidium iodide staining based flow cytometry (reference value: 23.04 %). In kind it is functional.
Series [20] has as its system HepG2. Briefly: Reduction in TDO mRNA expression in human HepG2 cells at 0.5 uM by SYBR-green dye based qRT-PCR analysis. In kind it is functional, cell-based. The note with it: TDE = time-dependent effect.
The test system of the next series is A549. Briefly: Antitumor activity against human A549 cells xenografted in immunodeficient BALB/c nude mouse assessed as tumor growth inhibition at 30 mg/kg, iv administered once daily for 29 days measured every 2 days for 29 days by electronic caliper relative to control. The format is functional. As to conditions: read-out: TGI.
A short description of series [21]: Toxicity in ICR mouse xenografted with mouse H22 cells assessed as effect on body weight at 30 mg/kg, iv administered once daily for 21 consecutive days measured every 2 days for 21 days. In kind it is organism-based. The note with it: in vivo, 504 h.

SMILES strings stand for the structures. The source made the active and inactive calls. The rule behind the calls is not given here.

Consider `COc1ccc(/C=C\c2cc(OC)c(OC)c(OC)c2)cc1OC(=O)c1cccc(Cn2cc(CCOC(=O)c3cccc(Cn4nnc5c4C(=O)c4ccccc4C5=O)c3)nn2)c1`, for which the Activity is on record as 68.53% in the series with HepG2 [1]; 53.2% in the series with HepG2 [4]; “Non-Toxic” in [6]; “Non-Toxic” in [8]; 25.7% in the series with Mus musculus; 43.1% with HepG2 [9]. Further, the Activity entry in [11] is listed as “Non-Toxic”; in series [13], “Non-Toxic”; in series [15] it was “Non-Toxic”; in the series on HepG2 [16] it was 15.66%; in the series with HepG2 [18], 2.89%; with HepG2 [19], 15.81%. Further, the Activity entry in series [21] is “Non-Toxic”. The “fold change (FC)” value with HepG2 [2] is 2.5. Besides, the outcome with HepG2 [3], in the series on HepG2 [5], in the series on HepG2 [7], in the series with HepG2 [12] and with HepG2 [14] was Active. For the same compound, the inhibition entry at Tubulin (Homo sapiens), with HepG2 [10] and with HepG2 [17] was “Active” throughout. Also, the inhibition entry with HepG2 [20] is “Tde”. In the series on A549, the inhibition in vivo at 30 mg/kg worked out at 64.3%.
